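These data come from cells grown in 96-well plates and exposed to compound for 48 hours at five concentrations. GI50 marks 50% less growth. Definition used: TGI = concentration required for complete inhibition of growth.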

Some test systems named below: OVCAR-3 ovarian; UACC-257 melanoma; SK-MEL-2 melanoma; HOP-62 NSCLC; SF-539 CNS; HCT-116 colon; T-47D breast; DU-145 prostate; MDA-MB-231 breast; MDA-MB-435.
Holding throughout (assay): growth of human tumour cells (NCI), 48 h

For `N#Cc1c(N)oc2cc3c(C#N)c(N)oc3cc12`, the TGI with OVCAR-3 ovarian, with UACC-257 melanoma, in the experiment on SK-MEL-2 melanoma, in the experiment with HOP-62 NSCLC and in the experiment with SF-539 CNS was over 100 µM throughout.

In the case of `O=C(CC1(O)C(=O)Nc2ccccc21)c1cccc(O)c1` (centres undefined), the TGI with OVCAR-3 ovarian, in the experiment on UACC-257 melanoma, with SK-MEL-2 melanoma, in the experiment on HOP-62 NSCLC, in the experiment on HCT-116 colon and in the experiment with SF-539 CNS was over 100 µM throughout.

For `C#Cc1c(C)c(/C=C/C(C)=C\C(=O)OC)n(C)c1C`, the TGI with OVCAR-3 ovarian, with UACC-257 melanoma, with HOP-62 NSCLC and in the experiment on SF-539 CNS was over 100 µM in each case.

As to `CN(C)NC(=O)NC12CC3CC(CC(C3)C1)C2`, the TGI in the experiment on UACC-257 melanoma, in the experiment on SK-MEL-2 melanoma, in the experiment with HCT-116 colon and in the experiment with SF-539 CNS was over 100 µM in each case.

In the case of `O=[N+]([O-])c1ccc(N=P(c2ccccc2)(c2ccccc2)c2ccccc2)n2nnnc12`, the TGI is over 100 µM in the experiment on OVCAR-3 ovarian; over 100 µM in the experiment with UACC-257 melanoma; over 100 µM in the experiment on SK-MEL-2 melanoma; 90.2 µM in the experiment on HOP-62 NSCLC; 50.9 µM in the experiment on SF-539 CNS.

With `COC1=CC(=O)C2(C=C1OC)OC[C@H]1Oc3c(ccc4c3C=CC(C)(C)O4)C(=O)[C@H]12` (some centres undefined), the TGI in the experiment on OVCAR-3 ovarian, in the experiment on UACC-257 melanoma, in the experiment on SK-MEL-2 melanoma, in the experiment with HOP-62 NSCLC, with HCT-116 colon and in the experiment on SF-539 CNS was over 100 µM in each case.

Turning to `Nc1nc(N)c(CCCCc2ccc([N+](=O)[O-])cc2)c(N)n1`, the TGI in the experiment with T-47D breast, with OVCAR-3 ovarian, in the experiment with UACC-257 melanoma, with SK-MEL-2 melanoma, in the experiment with DU-145 prostate and with HOP-62 NSCLC was over 100 µM each time. Moreover, the TGI in the experiment with MDA-MB-231 breast, in the experiment on HCT-116 colon and in the experiment on SF-539 CNS was over 100 µM each time.

Consider `C=C1C(=O)C23C(O)CC4C(C)(C)CCC(O)C4(C)C2CC(OC(C)=O)C1[C@H]3O` (some centres undefined), for which the TGI with OVCAR-3 ovarian came out at 19 µM; in the experiment on MDA-MB-435, 21.4 µM; in the experiment on UACC-257 melanoma, 8.38 µM; with SK-MEL-2 melanoma, 5.3 µM; with HOP-62 NSCLC, 28.2 µM; in the experiment on MDA-MB-231 breast, 14.6 µM. Moreover, the results for the TGI with HCT-116 colon and with SF-539 CNS were 5.88 µM and 9.45 µM, respectively.

On to `COc1ccc(/C=C\c2cc(OC)c(OC)c(OC)c2)cc1NC(=O)/C=C/c1cc(OC)c(OC)c(OC)c1`, for which the GI50 in the experiment with T-47D breast was 5.01 µM; with OVCAR-3 ovarian, 5.62 µM; with UACC-257 melanoma, 30.8 µM; with DU-145 prostate it was 5.01 µM; in the experiment with HOP-62 NSCLC, 4.62 µM; in the experiment with MDA-MB-231 breast, 7.81 µM. In addition, the values for the GI50 in the experiment on HCT-116 colon and with SF-539 CNS were 3.83 µM and 3.95 µM, respectively. Further, the TGI with T-47D breast, in the experiment with OVCAR-3 ovarian, in the experiment with UACC-257 melanoma, in the experiment with DU-145 prostate, with HOP-62 NSCLC and with MDA-MB-231 breast was over 100 µM each time. Also, the TGI with HCT-116 colon and in the experiment with SF-539 CNS was over 100 µM each time.

As to `COc1cccc(NC(=O)/C(CS(=O)(=O)CCC(C(C)=O)C(C)=O)=N\NC(C)(C)C)c1`, the TGI in the experiment with OVCAR-3 ovarian, in the experiment with UACC-257 melanoma, in the experiment with SK-MEL-2 melanoma, in the experiment on HOP-62 NSCLC, in the experiment on HCT-116 colon and in the experiment with SF-539 CNS was over 100 µM each time.

On to `O=C(CC1(O)C(=O)Nc2ccc(Cl)cc21)c1ccc(C(=O)NCC2CCC3(CC2)OOC2(CCCCC2)OO3)cc1` (centres undefined), for which the GI50 in the experiment with T-47D breast is 1.57 µM; in the experiment on UACC-257 melanoma, 6.48 µM; with SK-MEL-2 melanoma, 2.16 µM; with DU-145 prostate it was 2 µM; in the experiment with HOP-62 NSCLC, 0.445 µM; with MDA-MB-231 breast it was 2.68 µM. Further, the GI50 with HCT-116 colon is 2.71 µM; in the experiment with SF-539 CNS, 1.63 µM. Besides, the TGI is 5.37 µM in the experiment on T-47D breast; 24.2 µM in the experiment with UACC-257 melanoma; 4.78 µM with SK-MEL-2 melanoma; 6.49 µM in the experiment on DU-145 prostate; 2 µM with HOP-62 NSCLC; 7.72 µM in the experiment with MDA-MB-231 breast. Also, the figures for the TGI with HCT-116 colon and in the experiment with SF-539 CNS were 12.3 µM and 3.16 µM, respectively.

As to `Cc1nc2ccccc2c(=O)n1/N=C(\N=Nc1cc(Cl)ccc1Cl)c1ccc(N(C)C)cc1`, the TGI was 83 µM with HOP-62 NSCLC, over 100 µM with HCT-116 colon and over 100 µM in the experiment on SF-539 CNS.

Regarding `O=C1N(c2ccc(Cl)cc2)C(=O)C2(SC=NN2Cc2ccccc2)N1c1ccc(Cl)cc1` (centres undefined), the TGI in the experiment on OVCAR-3 ovarian, in the experiment on UACC-257 melanoma, in the experiment on HOP-62 NSCLC, in the experiment on HCT-116 colon and in the experiment with SF-539 CNS was over 100 µM in each case.

In the case of `CCOC(=O)C(Oc1ccc(OC)c2c1C(=O)CCC2)c1ccccc1` (centres undefined), the TGI with OVCAR-3 ovarian, with UACC-257 melanoma, in the experiment on SK-MEL-2 melanoma, with HOP-62 NSCLC, with HCT-116 colon and with SF-539 CNS was over 100 µM in each case.

In the case of `Cc1ccccc1NC(=O)C(=O)C(C(=O)c1ccccc1F)C1OC(=O)c2ccccc21` (centres undefined), the TGI in the experiment with OVCAR-3 ovarian was 95 µM; in the experiment on UACC-257 melanoma, over 100 µM; with SK-MEL-2 melanoma, 65.4 µM; in the experiment with HOP-62 NSCLC, 44.4 µM; in the experiment on HCT-116 colon, 29.1 µM; in the experiment on SF-539 CNS, 27.4 µM.

For `COc1cc(O)c(C(=O)C2Cc3ccccc32)c(OC)c1` (centres undefined), the TGI is over 100 µM with UACC-257 melanoma; 95 µM in the experiment on SK-MEL-2 melanoma; over 100 µM in the experiment on HOP-62 NSCLC; over 100 µM in the experiment on HCT-116 colon; over 100 µM in the experiment with SF-539 CNS.

Turning to `CC(C)(c1ccc(C=O)o1)c1ccc(C(C)(C)c2ccc(C=O)o2)o1`, the TGI in the experiment with UACC-257 melanoma, with SK-MEL-2 melanoma, with HOP-62 NSCLC, with HCT-116 colon and in the experiment with SF-539 CNS was over 100 µM in each case.

In the case of `C=C(C)[C@@H]1CC[C@]2(C(=O)O)CC[C@]3(C)[C@H](CC[C@@H]4[C@@]5(C)CCC(N)C(C)(C)[C@@H]5CC[C@]43C)[C@@H]12` (some centres undefined), the GI50 in the experiment on OVCAR-3 ovarian is 1.9 µM; in the experiment on MDA-MB-435, 1.75 µM; in the experiment on SK-MEL-2 melanoma, 1.95 µM; with DU-145 prostate, 3.07 µM; in the experiment on HOP-62 NSCLC it was 2.49 µM; in the experiment on MDA-MB-231 breast, 1.88 µM. In the experiment on SF-539 CNS, the GI50 was 1.59 µM. For the same compound, the TGI is 3.66 µM in the experiment on OVCAR-3 ovarian; 3.32 µM in the experiment with MDA-MB-435; 3.69 µM in the experiment with SK-MEL-2 melanoma; over 100 µM in the experiment on DU-145 prostate; 7 µM with HOP-62 NSCLC; 3.69 µM with MDA-MB-231 breast. In the experiment with SF-539 CNS, this compound yielded a TGI of 3.02 µM.

These data come from PubChem BioAssay (NCI).
